{
  "source": "patent US7691985B2",
  "about": "“Skeletal-targeted radiation to treat bone-associated pathologies” (priority 1999, dated 2010)",
  "key": {"[1]": {"assay": "Stability of ^166Ho-DOTMP with and without stabilizer: radiochemical purity by ITLC, CEC, HPLC (Example 15)", "assay_type": "physicochemical", "protocol": "Samples of ^166Ho-DOTMP were prepared according to the procedure in Example 1 using ascorbic acid, 55 mg/mL, as the stabilizer. Identical samples were prepared without ascorbic acid. The solutions were analyzed for radiochemical purity after 1 hour, 6 hours, 10 hours, 24 hours, and 48 hours, using Instant Thin Layer Chromatography (ILTC), Cation Exchange Chromatography (CEC) and High Performance Liquid Chromatography (HPLC)."}, "[2]": {"assay": "Biodistribution study of ^166Ho-DOTMP in rats (Example 16)", "assay_type": "in vivo, Sprague Dawley rats", "conditions": "rat, i.v.", "protocol": "Sprague Dawley (S. D.) rats were injected intravenously (inj. i.v.) with a solution of ^166Ho-DOTMP (“Ho-DO”) containing ascorbic acid (asc) as a stabilizer. The animals were sacrificed and organs excised and counted in a radioactive well counter after decay to appropriate levels. Bone (femur) samples were counted and converted to a total bone percent injected dose using a factor of 25 times femur percent.\nA second group of Sprague Dawley rats were injected intravenously with a solution of ^166Ho-DOTMP without having the stabilizer. The animals were sacrificed and organs excised and counted in a radioactive well counter after decay to appropriate levels. Bone (femur) samples were counted and converted to a total bone percent injected dose using a factor of 25 times femur percent.\nFIG. 2 illustrates the data uptake base on the % injection dose. FIG. 3 illustrates the data uptake base on the % injection dose per gram(mass). FIG. 4 illustrates the data uptake base on the tissue/blood ratio. Abbreviations: Blo=blood; Tai=tail; Lun=lung; Liv=liver; Spl=spleen; Sto=stomach; Kid=kidneys; Int=intestines; Bon=bone; SD=standard deviation."}, "[3]": {"assay": "^153Sm-EDTMP 30-50 Gy with melphalan up to 200 mg/m^2, response and urinary tract side effects", "assay_type": "in vivo", "conditions": "30-50 Gy with melphalan as high as 200 mg/m^2"}, "[4]": {"test_system": "rats inoculated with murine myeloma cells", "conditions": "used with melphalan, followed by bone marrow transplant; cited from earlier work"}, "multiple myeloma [5]": {"test_system": "multiple myeloma", "assay": "Single patient: 40 Gy ^153Sm-EDTMP, melphalan 200 mg/m^2 (Example 14)", "assay_type": "in vivo, human", "conditions": "present tense", "protocol": "The patient, a person with an original diagnosis of multiple myeloma and diagnosed with primary refractory disease, is given a trace dose of ^153Sm-EDTMP, and the 24 hr whole body uptake is calculated. Based on dosimetry calculations a therapeutic dose is designed to deliver 40 Gy to the marrow. After the level of ^153Sm in the patient fell to ≦3.6 mCi, the patient receives a dose of 200 mg/m^2 of melphalan (I.V.). The patient's stem cells are reinfused two days after the melphalan, with G-CSF and antibiotics, as needed."}, "multiple myeloma [6]": {"test_system": "multiple myeloma", "conditions": "140 mg/m^2 of body-surface area intravenously; cited from earlier work"}, "[7]": {"conditions": "40 Gy to marrow, melphalan 200 mg/m^2, one patient"}},
  "data": [
    {"smiles": "O=P([O-])(O)CN1CCN(CP(=O)([O-])O)CCN(CP(=O)(O)O)CCN(CP(=O)([O-])O)CC1.[166Ho+3]", "note": "[Ho-DO only]", "values": [
      {"measurement": "radiochemical purity, CEC", "setting": "[1]; 1 hr", "result": 99.0},
      {"measurement": "radiochemical purity, HPLC", "setting": "[1]; 1 hr", "result": 100},
      {"measurement": "radiochemical purity, ITLC", "setting": "[1]; 1 hr", "result": 99.2},
      {"measurement": "radiochemical purity, CEC", "setting": "[1]; 6 hrs", "result": 97.8},
      {"measurement": "radiochemical purity, HPLC", "setting": "[1]; 6 hrs", "result": 95.4},
      {"measurement": "radiochemical purity, ITLC", "setting": "[1]; 6 hrs", "result": 98.1},
      {"measurement": "radiochemical purity, CEC", "setting": "[1]; 10 hrs", "result": 97.8},
      {"measurement": "radiochemical purity, HPLC", "setting": "[1]; 10 hrs", "result": 94.9},
      {"measurement": "radiochemical purity, ITLC", "setting": "[1]; 10 hrs", "result": 97.5},
      {"measurement": "radiochemical purity, CEC", "setting": "[1]; 24 hrs", "result": 97.2},
      {"measurement": "radiochemical purity, HPLC", "setting": "[1]; 24 hrs", "result": 85.8},
      {"measurement": "radiochemical purity, ITLC", "setting": "[1]; 24 hrs", "result": 97.6},
      {"measurement": "radiochemical purity, CEC", "setting": "[1]; 48 hrs", "result": 97.1},
      {"measurement": "radiochemical purity, ITLC", "setting": "[1]; 48 hrs", "result": 96.5},
      {"measurement": "Percent Injection Dose, Blood", "setting": "[2]", "result": 0.29, "unit": "Percent Injection Dose"},
      {"measurement": "Percent Injection Dose, Intestine", "setting": "[2]", "result": 3.81, "unit": "Percent Injection Dose"},
      {"measurement": "Percent Injection Dose, Kidney", "setting": "[2]", "result": 0.72, "unit": "Percent Injection Dose"},
      {"measurement": "Percent Injection Dose, Liver", "setting": "[2]", "result": 2.40, "unit": "Percent Injection Dose"},
      {"measurement": "Percent Injection Dose, Lung", "setting": "[2]", "result": 0.00, "unit": "Percent Injection Dose"},
      {"measurement": "Percent Injection Dose, Spleen", "setting": "[2]", "result": 0.56, "unit": "Percent Injection Dose"},
      {"measurement": "Percent Injection Dose, Stomach", "setting": "[2]", "result": 0.20, "unit": "Percent Injection Dose"},
      {"measurement": "Percent Injection Dose, Tail", "setting": "[2]", "result": 3.21, "unit": "Percent Injection Dose"},
      {"measurement": "Percent Injection Dose/Gram, Blood", "setting": "[2]", "result": "0.02 Percent Injection Dose/Gram"},
      {"measurement": "Percent Injection Dose/Gram, Intestine", "setting": "[2]", "result": "0.23 Percent Injection Dose/Gram"},
      {"measurement": "Percent Injection Dose/Gram, Kidney", "setting": "[2]", "result": "0.38 Percent Injection Dose/Gram"},
      {"measurement": "Percent Injection Dose/Gram, Liver", "setting": "[2]", "result": "0.31 Percent Injection Dose/Gram"},
      {"measurement": "Percent Injection Dose/Gram, Lung", "setting": "[2]", "result": "0.04 Percent Injection Dose/Gram"},
      {"measurement": "Percent Injection Dose/Gram, Spleen", "setting": "[2]", "result": "1.03 Percent Injection Dose/Gram"},
      {"measurement": "Percent Injection Dose/Gram, Stomach", "setting": "[2]", "result": "0.05 Percent Injection Dose/Gram"},
      {"measurement": "Percent Injection Dose/Gram, Tail", "setting": "[2]", "result": "0.51 Percent Injection Dose/Gram"},
      {"measurement": "Tissue/Blood Ratio, Blood", "setting": "[2]", "result": 1.00},
      {"measurement": "Tissue/Blood Ratio, Bone", "setting": "[2]", "result": 296.80},
      {"measurement": "Tissue/Blood Ratio, Intestine", "setting": "[2]", "result": 13.80},
      {"measurement": "Tissue/Blood Ratio, Kidney", "setting": "[2]", "result": 22.84},
      {"measurement": "Tissue/Blood Ratio, Liver", "setting": "[2]", "result": 18.90},
      {"measurement": "Tissue/Blood Ratio, Lung", "setting": "[2]", "result": 2.34},
      {"measurement": "Tissue/Blood Ratio, Spleen", "setting": "[2]", "result": 62.09},
      {"measurement": "Tissue/Blood Ratio, Stomach", "setting": "[2]", "result": 3.24},
      {"measurement": "Tissue/Blood Ratio, Tail", "setting": "[2]", "result": 31.33},
      {"measurement": "Percent Injection Dose/Gram, Bone", "setting": "[2]; femur", "result": "4.84 Percent Injection Dose/Gram"},
      {"measurement": "Percent Injection Dose, Bone", "setting": "[2]; total bone = 25 times femur percent", "result": 50.05, "unit": "Percent Injection Dose"}
    ]},
    {"smiles": "O=P([O-])(O)CN(CCN(CP(=O)([O-])O)CP(=O)(O)O)CP(=O)([O-])O.[153Sm+3]", "note": "[^153Sm-EDTMP]", "values": [
      {"measurement": "total response rates", "setting": "[3]", "result": "> 90", "unit": "%"},
      {"measurement": "urinary tract side effects", "setting": "[3]", "result": "without significant urinary tract side effects"},
      {"measurement": "survival", "setting": "[4]", "result": "improves survival"},
      {"measurement": "days post stem cell transplant to neutrophil engraftment (ANC >500)", "setting": "multiple myeloma [5]; [7]", "result": "Fourteen"},
      {"measurement": "days post transplant to platelet engraftment (>20,000)", "setting": "multiple myeloma [5]; [7]", "result": "twenty"},
      {"measurement": "response", "setting": "multiple myeloma [5]; five months post treatment, one patient", "result": "complete remission"}
    ]},
    {"smiles": "N[C@@H](Cc1ccc(N(CCCl)CCCl)cc1)C(=O)O", "note": "[melphalan, L-phenylalanine, 4-[bis(2-chloroethyl)amino]-]", "values": [
      {"measurement": "patients with partial or complete remissions", "setting": "multiple myeloma [6]", "result": "about 40%"}
    ]}
  ]
}
